This passage reports EC50 and inhibition results from US10653688B2, “6-(6-membered heteroaryl and aryl)isoquinolin-3-yl carboxamides and preparation and use thereof” (Samumed, LLC, priority 2017, dated 2020).

The EC50 is the concentration at which the effect is half-maximal. As a reminder, the inhibition is the relative decrease from the control value, in per cent.

Like-named read-outs stand apart in the source and are kept apart here.

In assay [1] the test system is Wnt activity (SW480 colon carcinoma cells stably expressing the Sp5-Luc reporter gene). Kind of assay: Wnt activity screening assay (Sp5-Luc reporter gene assay). The format is cell-based, human. Conditions: Homo sapiens; for EC50: 36 to 48 hours; for inhibition at 10 µM: read-out: percent inhibition at 10 μM (given for EC50 >10 μM), 10 μM. The method, boiled down: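 EC50 values come from a variable-slope four-parameter fit of luminescence normalized to DMSO-only wells. The read-out follows 36–48 h incubation at 37 °C, 5% CO2, in DMEM containing 1% fetal bovine serum. Cells are hygromycin-selected SW480 stably expressing firefly luciferase under a Wnt-responsive Sp5 promoter (eight TCF/LEF sites).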

The target in assay [2] is recombinant GSK3β kinase (Homo sapiens (Human), UniProt P49841). The experiment in a line: GSK3β kinase assay (Ser/Thr 09 peptide Z-lyte, FRET).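 Note: FRET read-out as coumarin over fluorescein emission ratio, compounds incubated one hour at room temperature, IC50 from dose-response curve fit.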 The class given is biochemical.
recombinant GSK3β kinase, sequence (P49841 whole entry): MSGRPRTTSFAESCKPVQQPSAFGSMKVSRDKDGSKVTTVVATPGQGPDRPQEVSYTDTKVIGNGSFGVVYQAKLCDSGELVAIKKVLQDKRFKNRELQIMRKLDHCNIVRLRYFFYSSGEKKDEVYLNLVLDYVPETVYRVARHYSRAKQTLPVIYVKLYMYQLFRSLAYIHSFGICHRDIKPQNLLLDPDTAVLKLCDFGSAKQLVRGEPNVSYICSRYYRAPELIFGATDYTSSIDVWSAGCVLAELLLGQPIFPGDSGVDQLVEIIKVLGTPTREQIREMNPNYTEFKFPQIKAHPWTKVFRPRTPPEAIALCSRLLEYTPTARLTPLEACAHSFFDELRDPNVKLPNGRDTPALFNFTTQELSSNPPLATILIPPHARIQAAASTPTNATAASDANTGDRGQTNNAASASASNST
Description: Each compound is dissolved in DMSO as a 10 mM stock and used to prepare compound source plates. Serial dilution (1:3, 11-point dose-response curves from 10 M to 0.0003 M) and compound transfer was performed using the ECHO 550 (Labcyte, Sunnyvale, Calif.) into 1536-well black-walled round bottom plates (Corning).
This is a non-radioactive assay using fluorescence resonance energy transfer (FRET) between coumarin and fluorescein to detect kinase activity which is represented as ratio of coumarin emission/fluorescein emission.
The mixture is allowed to incubate with the representative compounds for one hour at room temperature. All reactions were performed in duplicate. Unphosphorylated (“0% Control”) and phosphorylated (“100% control”) forms of Ser/Thr 18 serve as control reactions.
After incubation, diluted Development Buffer is added to the reaction and allowed to further incubate for one hour at room temperature.
Dose-response curves are generated and inhibitory concentration (IC50) values are calculated using non-linear regression curve fit in the Dotmatics' Studies Software (Bishops Stortford, UK).
Assay [3] has as its system SW480 colon carcinoma cells. The experiment in a line: Cell viability assay (CellTiter-Glo). The class given is cell-based, human. Conditions: Homo sapiens; for EC50: 96 h, four days, CellTiter-Glo; for inhibition at 10 µM: read-out: percent inhibition at 10 μM (given for EC50 >10 μM), 10 μM. For orientation: ATP-based viability assays read luminescence as a measure of living cells.

The test system of assay [4] is LL29 cells (primary human fibroblasts derived from IPF patients), α-smooth muscle actin. The experiment in a line: Inhibition of fibrotic process: TGF-β1-treated primary human fibroblasts, αSMA staining.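 For all read-outs here: controls were TGF-β1-stimulated wells with DMSO vehicle as the positive reference and cells given DMSO alone as the negative reference.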 The class given is cell-based. Conditions: Homo sapiens, Fibroblast; for EC50: 96 h, TGF-β1 20 ng/mL, 4 days, % cells positive for αSMA; for inhibition at 10 µM: read-out: percent inhibition at 10 μM (given for EC50 >10 μM), TGF-β1, αSMA, 10 μM.

Assay [5] has as its system secreted cytokines TNFα, IL-6 and KC-GRO in BV-2 cells (mouse microglial cells). The experiment in a line: Secreted cytokines in lipopolysaccharide-stimulated mouse glial cell line. The format is cell-based. Conditions: LPS 250 ng/mL 5 hours, table does not say which cytokine. How it is done: Representative compounds were screened using the cell-based assay procedure for secreted cytokines in a Lipopolysaccharide-stimulated mouse glial cell line described below.
BV-2 cells (mouse microglial cells) were cultured in 1:1 DMEM medium supplemented with 10% FBS, and 1% penicillin/streptomycin.
BV-2 cells are plated at 35,000 cells/well in a volume of 100 μl for at least 4 hours before compounds are added. DMSO-resuspended compounds were first dispensed in a 96-well plate and serial diluted from 10 μM to 4.6 nM final concentration in medium. Compounds were added to cells overnight. 250 ng/mL of lipopolysaccharide (Escherichia coli O111:B4, SIGMA) was added for 5 hours. Supernatant is removed and saved for further cytokine detection. The original plates with seeded cells were tested for cytotoxicity by measure of adenosine triphosphate (ATP) release by adding CellTiter-Glo® diluted 1:4 in distilled water (G7573, Promega) and transferring lysed cells to a completely black 96-well plate to be read with the Cytation3. Supernatant was then diluted 1:2 with a diluent from V-PLEX cytokine Kit and directly tested for the secreted cytokines TNFα, IL-6 and KC-GRO using electrochemiluminescence (Meso Scale Discovery). The standard curve for each cytokine was used to convert the electrochemiluminescent signal into pg of protein per mL. The signal was used to plot, draw the curve fitting, and determine each compounds EC50 in Prism (GraphPad).

Assay [6] relates to IL-6 in human peripheral blood mononuclear cells (huPBMCs). Kind of assay: IL-6 inhibition in LPS-stimulated human peripheral blood mononuclear cells (HTRF). The format is cell-based. Conditions: Homo sapiens, PBMC; for EC50: LPS 50 ng/mL, 22 hours, IL-6 HTRF; for inhibition at 10 µM: read-out: percent inhibition at 10 μM (given for EC50 >10 μM), LPS, IL-6, 10 μM. The method, boiled down: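 Compound-treated huPBMCs (1×10e6 cells/mL, 1% FBS-RPMI) were stimulated after 2 h with LPS (50 ng/mL) for another 22 h at 37° C. An anti-IL-6 HTRF pair reported IL-6 as the 665/620 nm ratio; activity relative to DMSO, EC50 by 4-parameter Levenberg-Marquardt fitting, duplicates.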
A general note: TR-FRET usually uses a lanthanide donor and a delayed reading to cut background.

The target in assay [7] is recombinant DYRK1A kinase (Homo sapiens (Human), UniProt Q13627). The experiment in a line: DYRK1A kinase assay (Ser/Thr 18 peptide Z-lyte, FRET).
In assay [8] the test system is pT212Tau in Dyrk1a- and MAPT-overexpressing HEK293T cells. Kind of assay: Tau phosphorylation at Threonine 212 (pT212Tau) sandwich ELISA in double transfected cells. Conditions: Homo sapiens, HEK-293T, read-out: Thr212 EC50 (μM).
The subject of assay [9] is Tau phosphorylation at Ser396 (pSer396) in SH-SY5Y cells. Kind of assay: Tau phosphorylation at Ser396 (pSer396) cell assay, ELISA/western blot. The format is cell-based, human. On the procedure: SH-SY5Y cells (human neuroblastoma) were cultured in DMEM/F-12 medium supplemented with 15% FBS, Non-essential Amino Acid and Penicillin/Streptomycin. Two days before treatment, cells were seeded onto 96 well plates at 5×10^4 cells/well.
The above synthesized compounds were screened using the cell assay procedure to assess decrease Tau phosphorylation at Ser396 (pSer396) described below.
DMSO-resuspended compounds were dispensed to 8 wells as a serial titration from 10 μM to 4.6 nM final in medium and cells were exposed overnight (16-18 h) in a humidified incubator at 36.6c before harvest.
Cells were lysed with RIPA buffer complemented with phosphatase and protease inhibitors then lysates were spun down at 12,000 g for 10 min to remove any cellular debris. Lysates are then either directly tested for pSer396 by ELISA (Life Technology, Kit KHB7031) or loaded on NuPage Bis-Tris gels for western blot analysis. Colorimetric detection of ELISA signal is performed by Cytation3 plate reader (Biotek) and the chemiluminescence signal for HRP-linked antibodies used in western blotting is detected using a Carestream Image Station. The same pSer396 antibody is used for detection of pTau in both assays.
Blot densitometry for pSer396 and β-actin were analyzed using ImageJ (NIH) and pSer396 Tau ELISA signal was used to plot, draw the curve fitting, and determine each compounds EC50 in Prism (GraphPad).
For orientation: ELISA stands for enzyme-linked immunosorbent assay.

[10] abbreviates: GSK3β kinase, head says EC50, method says IC50, ATP 46 μM.
[11] abbreviates: DYRK1A kinase, head says EC50, method says IC50, ATP 30 μM.
[12] abbreviates: Homo sapiens, SH-SY5Y cells, overnight (16-18 h), read-out: pSer396 Tau EC50.

For `O=C(CN1CCOCC1)Nc1cc2cc(-c3cnccn3)ccc2cn1` [Compound 79, 2-Morpholino-N-(6-(pyrazin-2-yl)isoquinolin-3-yl)acetamide], the EC50 in [1] was above 10 µM; in assay [2] (setting [10]) it was 1.31 µM; in assay [3], above 10 µM; in assay [4] it was above 10 µM; in assay [5], 1.7 µM; in assay [6], above 10 µM. The EC50 in assay [7] (setting [11]) was determined as 0.079 µM; in assay [8], 0.959 µM. In addition, the inhibition at 10 µM in assay [1] came to 7.9%; in [3] it was 24.8%; in assay [4], 17.2%; in assay [6], 3.9%.
`CN1CCN(c2cc(C(=O)Nc3cc4cc(-c5cncc(C(F)F)c5)ccc4cn3)ccn2)CC1` [Compound 28, N-(6-(5-(Difluoromethyl)pyridin-3-yl)isoquinolin-3-yl)-2-(4-methylpiperazin-1-yl)isonicotinamide]: the EC50 was 4.67 µM in assay [1]; above 10 µM in assay [2] (setting [10]); 4.15 µM in assay [3]; 1.52 µM in [4]; 0.295 µM in assay [5]; 7.43 µM in assay [6]. Further, the figures for the EC50 in [7] (setting [11]) and in [8] were 0.011 µM and 1.6 µM, respectively.
Consider `COc1ccc2c(c1)[nH]c1c(C)nccc12` [Harmine, reference compound], for which the EC50 in assay [9] (Homo sapiens, SH-SY5Y, read-out: EC50 in the Tau assay) is above 10 µM.
Take `CC(=O)Nc1cncc(-c2ccc3cnc(NC(=O)C4CCN(C)CC4)cc3c2)c1` [Compound 47, N-(6-(5-Acetamidopyridin-3-yl)isoquinolin-3-yl)-1-methylpiperidine-4-carboxamide]: the EC50 in assay [1] was 1.26 µM; in assay [2] (setting [10]), 0.487 µM; in [9] (setting [12]), above 10 µM; in assay [3], 6.98 µM; in assay [4], 0.556 µM; in assay [6], 5.99 µM. In [7] (setting [11]), the concentration for a half-maximal effect (EC50) was 0.002 µM.
For `CN1CCC(C(=O)Nc2cc3cc(-c4ccccn4)ccc3cn2)CC1` [Compound 3, 1-Methyl-N-(6-(pyridin-2-yl)isoquinolin-3-yl)piperidine-4-carboxamide], the EC50 was above 10 µM in assay [1]; 5.31 µM in assay [2] (setting [10]); above 10 µM in assay [9] (setting [12]); above 10 µM in [3]; 6.01 µM in assay [4]; above 10 µM in assay [6]. For the same molecule, the EC50 in assay [7] (setting [11]) was found to be 0.26 µM. Besides, the values for the inhibition at 10 µM in assay [1], in assay [3] and in [6] were 13.7%, 50% and 5.1%, respectively.
In the case of `O=C(CN1CCCC1)Nc1cc2cc(-c3cnccn3)ccc2cn1` [Compound 74, N-(6-(Pyrazin-2-yl)isoquinolin-3-yl)-2-(pyrrolidin-1-yl)acetamide], the 50% effective concentration (EC50) was above 10 µM in assay [1]; 1.69 µM in assay [2] (setting [10]); above 10 µM in assay [3]; above 10 µM in [4]; 1.43 µM in [5]; above 10 µM in assay [6]. Also, the EC50 in assay [7] (setting [11]) was determined as 0.094 µM; in assay [8], 2.1 µM. Further, the inhibition at 10 µM is 17.5% in assay [1], 125% in assay [3], 18.7% in [4] and 4.9% in assay [6].
With `CN1CCC(c2cccc(C(=O)Nc3cc4cc(-c5cncc(C(F)F)c5)ccc4cn3)c2)CC1` [Compound 27, N-(6-(5-(Difluoromethyl)pyridin-3-yl)isoquinolin-3-yl)-3-(1-methylpiperidin-4-yl)benzamide], the EC50 in assay [1] was 1.11 µM; in [2] (setting [10]), above 10 µM; in [3], 1.95 µM; in [4], 0.979 µM; in [5] it was 0.847 µM; in [6] it was 9.16 µM. Moreover, the EC50 in assay [7] (setting [11]) stood at 0.029 µM; in [8] it was 6.8 µM.
Turning to `CN1CCN(CC(=O)Nc2cc3cc(-c4cncc(C(F)(F)F)c4)ccc3cn2)CC1` [Compound 29, 2-(4-Methylpiperazin-1-yl)-N-(6-(5-(trifluoromethyl)pyridin-3-yl)isoquinolin-3-yl)acetamide], the EC50 in assay [1] is 9.85 µM; in assay [2] (setting [10]), above 10 µM; in assay [9] (setting [12]), above 10 µM; in assay [3], 4 µM; in assay [4], 4.02 µM; in assay [6], above 10 µM. Besides, the EC50 in [7] (setting [11]) was determined as 0.608 µM. In assay [6], the inhibition at 10 µM was determined as 4.3%.
`CCN1/C(=C/C(C)=O)Sc2ccc(O)cc21` [Indy, reference compound]: the EC50 in [9] (control DYRK1A inhibitors, printed '>10 M' (μ apparently lost), read-out: EC50 in the Tau assay) was above 10 µM.
With `CC(C)(O)CN1CCCC(C(=O)Nc2cc3cc(-c4cnccn4)ccc3cn2)CC1` (centres unmarked) [Compound 82, 1-(2-Hydroxy-2-methylpropyl)-N-(6-(pyrazin-2-yl)isoquinolin-3-yl)azepane-4-carboxamide], the EC50 in [1] is above 10 µM; in [2], 1.54 µM; in assay [3], above 10 µM; in assay [4] it was 3.15 µM; in [5] it was 0.717 µM; in [6], above 10 µM. The half-maximal effective concentration (EC50) was 0.027 µM in [7] and 0.192 µM in assay [8]. Further, the inhibition at 10 µM in assay [1] came to 3.4%; in [3], 20%; in assay [6] it was 9.9%.
In the case of `O=C(CN1CCOCC1)Nc1cc2cc(-c3cccnn3)ccc2cn1` [Compound 66, 2-morpholino-N-(6-(pyridazin-3-yl)isoquinolin-3-yl)acetamide], the EC50 in [1] was above 10 µM; in assay [2], 0.859 µM; in assay [3], above 10 µM; in assay [4] it was above 10 µM; in [5], 2.97 µM; in [6], above 10 µM. Moreover, the 50% effective concentration (EC50) is 0.123 µM in assay [7] and 0.791 µM in assay [8]. Also, the inhibition at 10 µM stood at 8.2% in assay [1], 17.5% in assay [3], 10.6% in assay [4] and 8.1% in [6].
`O=C(CN1CCOCC1)Nc1cc2cc(-c3cncc(F)c3)ccc2cn1` [Compound 22, N-(6-(5-Fluoropyridin-3-yl)isoquinolin-3-yl)-2-morpholinoacetamide]: the EC50 was above 10 µM in assay [1]; 1.77 µM in assay [2]; above 10 µM in assay [3]; 2.06 µM in assay [4]; 1.32 µM in [5]; above 10 µM in assay [6]. In addition, the EC50 in assay [7] amounted to 0.07 µM; in [8], 0.253 µM. In addition, the inhibition at 10 µM in [1] worked out at 10.9%; in assay [3], 17.2%; in [6] it was 22.9%.
